Results taken from paper PMC10321483 (Chemical Science, 2023).

Target: T1, LdtMt2-ebselen complex (Mycobacterium tuberculosis, UniProt I6Y9J2)
T1 construct: made in house; host or cells: E. coli
Test: SPE-MS active-site selectivity assay with ebselen-preincubated LdtMt2
Format: binding
Conditions: inhibitor 100 µM, 24 h
Method: LdtMt2 contains only a single cysteine residue (Cys354). However, as several identified electrophiles are able to react with residues other than cysteine,[30,31] it was assessed whether covalent modification of LdtMt2 by the inhibitors is related to reaction with Cys354. […] Apparently complete LdtMt2 modification by a single molecule of ebselen (+274 Da) was observed. Inhibitors 1–21 were then added to the ebselen derived LdtMt2 complex (Fig. S11 ^†).
Figure S11. Protein observed SPE-MS based active -site selectivity assay s. LdtMt2 (1 µM) was 153 preincubated with ebselen (10 µM, a known Ldt Mt2 inhibitor3, which reacts with the nucleophilic 154 Cys354) for 1 h in 50 mM Tris, pH 7.5 , prior to addition of inhibitors 1-15 (100 µM). Samples were 155 analysed after an additional 24 h incubation at room temperature. The spectrum in blue corresponds 156 to LdtMt2 reacted with ebselen. The spectrum in green corresponds to LdtMt2 reacted with the specified 157 inhibitor, following preincubation with ebselen. The spectrum in purple corresponds to LdtMt2 reacted 158 with the specified inhibitor. Deconvoluted spectra, obtained using the maximum entropy algorithm in 159 the MassHunter Workstation Qualitative Analysis B.07.00 program (Agilent), are shown. 160
(1 picture or pasted object on this page, not shown here)

T1 sequence (I6Y9J2 56-408, one chain of several): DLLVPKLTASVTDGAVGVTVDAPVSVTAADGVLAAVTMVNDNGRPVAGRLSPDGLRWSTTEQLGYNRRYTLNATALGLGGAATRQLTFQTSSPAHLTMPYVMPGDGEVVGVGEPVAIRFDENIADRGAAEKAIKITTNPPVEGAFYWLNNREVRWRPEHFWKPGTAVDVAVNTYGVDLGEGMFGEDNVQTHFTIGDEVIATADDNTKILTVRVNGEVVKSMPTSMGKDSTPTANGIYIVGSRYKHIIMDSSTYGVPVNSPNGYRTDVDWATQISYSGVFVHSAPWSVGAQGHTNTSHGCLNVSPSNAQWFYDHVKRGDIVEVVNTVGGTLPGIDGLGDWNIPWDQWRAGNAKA

| Compound | reaction with the LdtMt2-ebselen complex (Cys354 unavailable) |
| --- | --- |
| CC(C)(C)OC(=O)Nc1ccc(N2C(=O)C=CC2=O)cc1 [Compound 6] | observed to react with the LdtMt2-ebselen complex |
| COc1ccc(CN2C(=O)C(=O)c3cc(Br)cc(C)c32)cc1OC [Compound 17] | observed to react with the LdtMt2-ebselen complex |
| CCOc1ccc(CN2C(=O)C(=O)c3cc(Br)cc(C)c32)cc1OC [Compound 16] | observed to react with the LdtMt2-ebselen complex |
